# Experimental data reported in PubChem BioAssay AID1745844 (Carcinogenic Potency Database (CPDB), 2022).
# “And” between values parts separate entries of the source, which are not always exact repeats. Equal entries are not always repeated. The source made the active and inactive calls. No rule for the calls is given here.
# Tested on: rodent lifetime carcinogenesis bioassay, tumor incidence TD50
# Assay: chronic cancer bioassays in animals – CPDB, compiled studies (AID 1745844)
# Details: inhaled, dosed 104 weeks, study length 104 weeks; for carcinogen call: site: liver, lesion: one or several types, types not named
smiles,measurement,setting,value
C=CC(=C)Cl,TD50,"mouse, strain B6C3F1, males, site: lung, lesion: alveolar/bronchiolar adenoma + alveolar/bronchiolar carcinoma",17.2 mg/kg/day
same,TD50,"mouse, strain B6C3F1, males, site: lung, lesion: alveolar/bronchiolar adenoma",30.7 mg/kg/day
same,TD50,"mouse, strain B6C3F1, males, site: lung, lesion: alveolar/bronchiolar carcinoma",26.4 mg/kg/day
same,TD50,"mouse, strain B6C3F1, males, site: mesentery, lesion: hemangioma + hemangiosarcoma",37.6 mg/kg/day
same,TD50,"mouse, strain B6C3F1, males, site: mesentery, lesion: hemangiosarcoma",39 mg/kg/day
same,TD50,"mouse, strain B6C3F1, males, site: subcutaneous tissue, lesion: hemangiosarcoma",177 mg/kg/day
same,TD50,"rat, strain Fischer 344, females, site: all sites, lesion: mononuclear-cell leukemia",30.4 mg/kg/day
same,TD50,"rat, strain Fischer 344, females, site: any site (literature study), lesion: several types, types named in the paper",25.4 mg/kg/day
same,TD50,"rat, strain Fischer 344, females, site: clitoral gland, lesion: adenoma + adenoma, bilateral + carcinoma + carcinoma, bilateral",7.14 mg/kg/day
same,TD50,"rat, strain Fischer 344, females, site: clitoral gland, lesion: carcinoma + carcinoma, bilateral",12.4 mg/kg/day
same,TD50,"rat, strain Fischer 344, females, site: kidney, lesion: tubule adenoma + tubule carcinoma",183 mg/kg/day
same,TD50,"rat, strain Fischer 344, females, site: kidney, lesion: tubule adenoma",461 mg/kg/day and 183 mg/kg/day
same,TD50,"rat, strain Fischer 344, females, site: lung, lesion: alveolar/bronchiolar adenoma",279 mg/kg/day
same,TD50,"rat, strain Fischer 344, females, site: mammary gland, lesion: carcinoma + fibroadenoma",20.4 mg/kg/day
same,TD50,"rat, strain Fischer 344, females, site: mammary gland, lesion: fibroadenoma",16.3 mg/kg/day
same,TD50,"rat, strain Fischer 344, females, site: oral mucosa + gingiva + mammary gland + pharynx + thyroid gland + tongue, lesion: squamous-cell papilloma + carcinoma + fibroadenoma + squamous-cell carcinoma + follicular-cell adenoma + follicular-cell carcinoma",23.3 mg/kg/day
same,TD50,"rat, strain Fischer 344, females, site: oral mucosa + gingiva + pharynx + tongue, lesion: squamous-cell papilloma + squamous-cell carcinoma",33.9 mg/kg/day
same,TD50,"rat, strain Fischer 344, females, site: oral mucosa + gingiva + pharynx + tongue, lesion: squamous-cell papilloma",61.2 mg/kg/day
same,TD50,"rat, strain Fischer 344, females, site: pharynx + tongue, lesion: squamous-cell carcinoma",77.8 mg/kg/day
same,TD50,"rat, strain Fischer 344, females, site: thyroid gland, lesion: follicular-cell adenoma + follicular-cell carcinoma",113 mg/kg/day
same,TD50,"rat, strain Fischer 344, females, site: tongue, lesion: squamous-cell carcinoma + squamous-cell papilloma",32.9 mg/kg/day
same,TD50,"rat, strain Fischer 344, females, site: tongue, lesion: squamous-cell carcinoma",91.1 mg/kg/day
same,TD50,"rat, strain Fischer 344, females, site: tongue, lesion: squamous-cell papilloma",53.5 mg/kg/day
same,TD50,"rat, strain Fischer 344, females, site: urinary bladder, lesion: transitional-cell carcinoma",467 mg/kg/day
same,TD50,"rat, strain Fischer 344, males, site: all sites, lesion: mesothelioma, malignant",27.1 mg/kg/day
same,TD50,"rat, strain Fischer 344, males, site: any site (literature study), lesion: several types, types named in the paper",6.12 mg/kg/day
same,TD50,"rat, strain Fischer 344, males, site: kidney, lesion: tubule adenoma + tubule carcinoma",16.1 mg/kg/day
same,TD50,"rat, strain Fischer 344, males, site: kidney, lesion: tubule adenoma",38.9 mg/kg/day and 15.4 mg/kg/day
same,TD50,"rat, strain Fischer 344, males, site: lung, lesion: alveolar/bronchiolar adenoma + alveolar/bronchiolar carcinoma",23.8 mg/kg/day
same,TD50,"rat, strain Fischer 344, males, site: lung, lesion: alveolar/bronchiolar carcinoma",24.5 mg/kg/day
same,TD50,"rat, strain Fischer 344, males, site: oral mucosa + gingiva + lung + pharynx + thyroid gland + tongue, lesion: squamous-cell papilloma + alveolar/bronchiolar adenoma + alveolar/bronchiolar carcinoma + follicular-cell adenoma + follicular-c",5.79 mg/kg/day
same,TD50,"rat, strain Fischer 344, males, site: oral mucosa + gingiva + pharynx + tongue, lesion: squamous-cell papilloma + squamous-cell carcinoma",10.1 mg/kg/day
same,TD50,"rat, strain Fischer 344, males, site: oral mucosa + gingiva + pharynx + tongue, lesion: squamous-cell papilloma",11.1 mg/kg/day
same,TD50,"rat, strain Fischer 344, males, site: oral mucosa + gingiva + pharynx, lesion: squamous-cell papilloma",39.2 mg/kg/day
same,TD50,"rat, strain Fischer 344, males, site: thyroid gland, lesion: c-cell adenoma",20 mg/kg/day
same,TD50,"rat, strain Fischer 344, males, site: thyroid gland, lesion: follicular-cell adenoma + follicular-cell carcinoma",18.7 mg/kg/day
same,TD50,"rat, strain Fischer 344, males, site: thyroid gland, lesion: follicular-cell adenoma",22 mg/kg/day
same,TD50,"rat, strain Fischer 344, males, site: tongue, lesion: squamous-cell carcinoma + squamous-cell papilloma",13.6 mg/kg/day
same,TD50,"rat, strain Fischer 344, males, site: tongue, lesion: squamous-cell papilloma",15.6 mg/kg/day
same,TD50,"rat, strain Fischer 344, males, site: urinary bladder, lesion: transitional-cell carcinoma",99.9 mg/kg/day
same,TD50,"rat, strain Fischer 344, males, site: urinary bladder, lesion: transitional-cell papilloma",468 mg/kg/day
same,TD50,"rat, strain Wistar-random, females, site: any site (literature study), lesion: several types, types named in the paper",37.4 mg/kg/day (inactive)
same,carcinogen call,"rat, strain Wistar-random, females",negative (inactive)
same,TD50,"rat, strain Wistar-random, females, site: mammary gland, lesion: fibroadenoma",55.1 mg/kg/day (inactive)
same,TD50,"rat, strain Wistar-random, males, site: any site (literature study), lesion: several types, types named in the paper",66.4 mg/kg/day (inactive)
same,carcinogen call,"rat, strain Wistar-random, males",negative (inactive)
